# Assay results as given in patent US20070009532A1 (priority 2005, published 2007).
# Columns and labels:
# [1] = target: P450 isoenzyme 3A4 (Homo sapiens, UniProt P08684); conditions: cited from earlier work
# [2] = target: T1, P-gp (Homo sapiens, UniProt P08183); assay: substrate for P-gp efflux / duration of reversal activity in resistant cells; assay type: cell-based
# T1 construct: relatively long duration of reversal activity in resistant cells even after the modulator has been withdrawn; endogenous in cells
# T1 sequence (P08183 whole entry): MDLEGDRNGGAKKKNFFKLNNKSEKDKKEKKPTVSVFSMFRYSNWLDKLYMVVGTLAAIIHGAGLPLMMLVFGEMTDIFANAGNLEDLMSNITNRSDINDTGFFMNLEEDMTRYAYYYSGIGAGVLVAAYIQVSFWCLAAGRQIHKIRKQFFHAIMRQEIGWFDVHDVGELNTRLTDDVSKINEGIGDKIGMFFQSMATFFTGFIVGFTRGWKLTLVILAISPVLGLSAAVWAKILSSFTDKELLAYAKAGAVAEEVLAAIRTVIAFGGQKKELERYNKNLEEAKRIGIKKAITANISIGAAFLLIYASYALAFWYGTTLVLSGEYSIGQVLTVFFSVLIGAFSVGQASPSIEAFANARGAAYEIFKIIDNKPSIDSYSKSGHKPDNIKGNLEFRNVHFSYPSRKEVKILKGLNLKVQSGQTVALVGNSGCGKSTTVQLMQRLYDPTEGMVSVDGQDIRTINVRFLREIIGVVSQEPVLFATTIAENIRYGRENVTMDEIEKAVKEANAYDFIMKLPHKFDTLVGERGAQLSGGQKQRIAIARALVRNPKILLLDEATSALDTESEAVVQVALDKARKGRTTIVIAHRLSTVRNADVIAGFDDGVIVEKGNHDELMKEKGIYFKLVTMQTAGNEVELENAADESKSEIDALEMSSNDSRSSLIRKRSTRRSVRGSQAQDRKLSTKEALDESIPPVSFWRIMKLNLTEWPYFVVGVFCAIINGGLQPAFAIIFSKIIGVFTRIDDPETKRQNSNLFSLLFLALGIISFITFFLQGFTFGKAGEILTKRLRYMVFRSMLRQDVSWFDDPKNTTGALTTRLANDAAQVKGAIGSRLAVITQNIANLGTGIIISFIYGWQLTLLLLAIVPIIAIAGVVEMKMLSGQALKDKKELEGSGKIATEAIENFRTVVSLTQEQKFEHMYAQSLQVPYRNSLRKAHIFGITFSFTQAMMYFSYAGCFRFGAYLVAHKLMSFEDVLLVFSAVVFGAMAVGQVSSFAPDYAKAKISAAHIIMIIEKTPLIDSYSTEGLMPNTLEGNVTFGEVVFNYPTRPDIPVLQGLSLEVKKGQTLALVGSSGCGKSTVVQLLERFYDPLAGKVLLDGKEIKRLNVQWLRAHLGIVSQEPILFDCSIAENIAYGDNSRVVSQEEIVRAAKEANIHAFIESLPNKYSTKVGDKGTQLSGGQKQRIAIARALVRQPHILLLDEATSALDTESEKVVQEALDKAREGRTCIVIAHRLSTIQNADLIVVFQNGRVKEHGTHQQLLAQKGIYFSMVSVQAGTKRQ
# [3] = pharmacokinetic interaction with co-administered oncolytics in preclinical models; assay type: in vivo; conditions: several oncolytics tested in preclinical models
# P450 isoenzyme 3A4, sequence (P08684 whole entry): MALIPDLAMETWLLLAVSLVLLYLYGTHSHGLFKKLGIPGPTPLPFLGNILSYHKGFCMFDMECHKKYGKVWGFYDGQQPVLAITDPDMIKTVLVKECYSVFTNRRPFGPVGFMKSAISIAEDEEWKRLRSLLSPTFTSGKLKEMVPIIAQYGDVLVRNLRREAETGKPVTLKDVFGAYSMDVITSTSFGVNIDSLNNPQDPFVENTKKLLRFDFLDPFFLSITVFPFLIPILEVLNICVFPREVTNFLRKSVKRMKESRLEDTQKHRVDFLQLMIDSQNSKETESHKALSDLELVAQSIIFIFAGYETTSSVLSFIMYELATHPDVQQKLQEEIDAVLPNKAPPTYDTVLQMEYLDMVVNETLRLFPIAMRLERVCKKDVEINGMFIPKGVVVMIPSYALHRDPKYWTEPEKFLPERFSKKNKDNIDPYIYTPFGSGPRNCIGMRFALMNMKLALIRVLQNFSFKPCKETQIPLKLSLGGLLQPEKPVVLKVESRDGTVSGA
structure (smiles),measurement,setting,value
COc1cc(C(=O)C(=O)N2CCCC[C@H]2C(=O)OC(CCCc2cccnc2)CCCc2cccnc2)cc(OC)c1OC [biricodar],substrate for P450 isoenzyme 3A4,[1],substrates for the P450 isoenzyme 3A4
"O[C@@H](COc1cccc2ncccc12)CN1CCN([C@@H]2c3ccccc3[C@@H]3[C@H](c4ccccc42)C3(F)F)CC1 [zosuquidar, (2R)-anti-5-3-[4-(10,11-difluoromethanodibenzosuber-5-y1)piperazin-1-y1]-2-hydroxypropoxy)quinoline]",substrate for P-gp efflux,[2],does not appear to be a substrate for P-gp efflux
same,pharmacokinetic (PK) interactions with oncolytics,[3],minimal pharmacokinetic (PK) interactions
C/C=C/C[C@@H](C)C(=O)[C@H]1C(=O)N[C@@H](C(C)C)C(=O)N(C)CC(=O)N(C)[C@@H](CC(C)C)C(=O)N[C@@H](C(C)C)C(=O)N(C)[C@@H](CC(C)C)C(=O)N[C@@H](C)C(=O)N[C@H](C)C(=O)N(C)[C@@H](CC(C)C)C(=O)N(C)[C@@H](CC(C)C)C(=O)N(C)[C@@H](C(C)C)C(=O)N1C [valspodar],substrate for P450 isoenzyme 3A4,[1],substrates for the P450 isoenzyme 3A4
